Reference: EP4729529A1, “PREPARATION OF PEPTIDE INHIBITOR OF INTERLEUKIN-23 RECEPTOR AND USE THEREOF” (Xizang Haisco Pharmaceutical Co., Ltd., priority 2023, dated 2024)
Starred links: 1 amine or outer side, 2 acyl side, 3 side chain; linkers in the order of their positions; H or OH if unused. Positions of bridges follow the written chain, without caps; N, C: chain ends. Non-standard residues stand in square brackets, D forms with d. Residues, ends and D or L forms follow the SMILES beside them. Phe(4-OC2H4NH2,2,3-(CH2)3) = NCCOc1ccc(C[C@H](N)C(=O)O)c2c1CCC2; Trp(7-cPr) = N[C@@H](Cc1c[nH]c2c(C3CC3)cccc12)C(=O)O; NH(CH2CH2O)4CH2CO = O=C(COCCOCCOCCOCCN[*:1])[*:2]; Trp(7-Me) = Cc1cccc2c(C[C@H](N)C(=O)O)c[nH]c12; 2Nal = N[C@@H](Cc1ccc2ccccc2c1)C(=O)O; X1 = O=C(C(N[*:1])C1(S[*:3])CC1)[*:2]; Thp(SO2) = NC1(C(=O)O)CCS(=O)(=O)CC1; AEF = NCCOc1ccc(C[C@H](N)C(=O)O)cc1; 3Pal = N[C@@H](Cc1cccnc1)C(=O)O; Cit = NC(=O)NCCC[C@H](N)C(=O)O; Pen = CC(C)(S)[C@H](N)C(=O)O; Thp = NC1(C(=O)O)CCOCC1; AEEA = NCCOCCOCC(=O)O; PEG1 = NCCOCCC(=O)O; Ahx = NCCCCCC(=O)O; Sar = CNCC(=O)O

Legend:
IL-23R = target: T1, IL-23R (Homo sapiens, UniProt Q5VWK5); assay: IL-23R reporter gene assay (HEK-blue IL23 reporter gene cell line, rhIL23 stimulation); format: cell-based; conditions: Inhibition of IL-23R, rhIL23 1 ng/mL, 24 hours
T1 construct: host or cells: HEK-blue IL23 reporter gene cell line
T1 sequence (Q5VWK5 24-629): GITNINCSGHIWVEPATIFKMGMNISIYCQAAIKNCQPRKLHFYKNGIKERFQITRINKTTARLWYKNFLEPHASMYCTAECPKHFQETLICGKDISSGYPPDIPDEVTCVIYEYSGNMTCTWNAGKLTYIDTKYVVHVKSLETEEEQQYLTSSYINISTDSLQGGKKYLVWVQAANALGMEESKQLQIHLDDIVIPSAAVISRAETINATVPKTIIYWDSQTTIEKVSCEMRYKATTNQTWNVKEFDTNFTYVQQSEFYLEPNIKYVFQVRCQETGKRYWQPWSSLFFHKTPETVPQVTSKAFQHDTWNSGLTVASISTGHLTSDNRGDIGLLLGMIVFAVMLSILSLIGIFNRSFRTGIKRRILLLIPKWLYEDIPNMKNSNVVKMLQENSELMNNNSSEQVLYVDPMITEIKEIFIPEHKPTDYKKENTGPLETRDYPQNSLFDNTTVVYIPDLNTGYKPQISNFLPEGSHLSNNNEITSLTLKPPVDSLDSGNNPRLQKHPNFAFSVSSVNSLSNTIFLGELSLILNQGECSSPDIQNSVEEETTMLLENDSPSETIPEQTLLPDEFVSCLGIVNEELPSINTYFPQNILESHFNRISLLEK
Procedure: 2. IL-23R reporter gene assay
The purpose of this assay was to assess the ability of compounds to inhibit the binding of IL23p19 to IL23R in a reporter gene system. The HEK-blue IL23 reporter gene cell line (Invivogen, hkb-il23) was cultured in DMEM + 10% FBS + 100 ug/mL Normocin medium. When the cell density reached 80%-90%, 5000 cells/well were plated into a 384-well plate, and the plate was incubated overnight at 37°C with 5% CO2. Then, the compound stock solution was diluted in DMSO, and 40 nL of the dilution was transferred into the 384-well culture plate by Echo. The plate was incubated at 37°C with 5% CO2 for 0.5 hours. 40 nL/well of rhIL23 (R&D, 1290-IL) was added to the 384-well cell culture plate at a final concentration of 1 ng/mL, and the plate was incubated at 37°C with 5% CO2 for 24 hours. 18 µL of Quanti-Blue™ solution was added to a new 384-well plate. 2 µL/well of cell culture supernatant was transferred into the 384-well plate prepared in Step 6, and the plate was incubated at 37°C with 5% CO2 for 1 hour. Absorbance values at […] were read on BMG. The binding ability of the compounds was assessed using the following formula, and IC50 values were obtained by fitting with Graphpad.
Calculation formula of inhibition rate: [formula] • where Data negative: mean of DMSO control group; and • Data positive: mean of non-IL23-stimulated group
The calculation formula of IC50 was as follows: Y = Bottom + (Top−Bottom)/(1+10^(∧)((LogIC50−X)*HillSlope)) [formula] • where X: concentration of compound; and • Y: inhibition rate of compound Table 2. Inhibition of IL-23R by test compounds

IL-23α/IL-12β and IL-23R = target: T2, IL-23α/IL-12β and IL-23R (Homo sapiens, UniProt Q5VWK5); assay: IL-23α/IL-12β and IL-23R binding assay (TR-FRET/HTRF); conditions: inhibition of the binding of IL-23α/IL-12β to IL-23R, TR-FRET; both proteins 0.3 nM
T2 construct: purchased ACRO ILR-H82F3 (IL-23R); ILB-H52W5 (IL-23α/IL-12β)
T2 sequence (Q5VWK5 24-353 limits assumed): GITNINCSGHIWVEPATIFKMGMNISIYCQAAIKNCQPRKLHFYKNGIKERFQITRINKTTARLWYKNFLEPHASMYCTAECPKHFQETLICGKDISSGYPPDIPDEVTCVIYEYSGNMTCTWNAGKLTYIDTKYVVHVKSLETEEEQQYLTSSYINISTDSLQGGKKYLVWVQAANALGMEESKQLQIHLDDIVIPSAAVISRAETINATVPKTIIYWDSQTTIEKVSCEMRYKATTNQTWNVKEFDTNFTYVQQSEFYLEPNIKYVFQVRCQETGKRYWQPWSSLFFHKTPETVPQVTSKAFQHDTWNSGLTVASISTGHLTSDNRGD
Procedure: 1. IL-23α/IL-12β and IL-23R binding assay
Compounds were tested for their inhibition on the binding of IL-23α/IL-12β to IL-23R by the TR-FRET method. Solutions of proteins IL-23α/IL-12β (ACRO, Cat# ILB-H52W5) and IL-23R (ACRO, Cat# ILR-H82F3) were prepared in reaction buffer PPI (PerkinElmer, Cat# 61DB10RDF). The final concentrations of IL-23α/IL-12β and IL-23R in the reaction mixture were both 0.3 nM. Positive reference Guselkumab was 3-fold diluted from an initial concentration of 30 nM, with 10 doses. 0.1 µL of the positive reference diluted in the reaction buffer was delivered to a 384-well plate (Grenier, Cat# 784075) by the acoustic liquid delivery technique (Echo 655), and the plate was centrifuged at 1000 rpm for 1 minute. 2.5 µL of IL-23α/IL-12β solution was transferred into the 384-well reaction plate, and the plate was centrifuged at 1000 rpm for 1 minute, and incubated at 25°C for 60 minutes. 2.5 µL of IL-23R solution was transferred into the 384-well reaction plate, and the plate was centrifuged at 1000 rpm for 1 minute. 5 µL of Streptavidin-Tb cryptate and Anti 6HIS-d2 detection mixture was transferred into the 384-well reaction plate, and the plate was centrifuged at 1000 rpm for 1 minute, and incubated at 25°C for 60 minutes. Finally, the HTRF signal (Ratio 665/620 nm) was read with a BMG high-throughput drug screening multifunctional microplate reader. IC50 values were obtained by nonlinear regression curve fitting using GraphPad Prism software.

[1] = Pharmacokinetic test in mice (intravenous and intragastric, plasma LC-MS/MS); format: in vivo; conditions: male, mouse, Balb/c mice
Procedure: 4. Pharmacokinetic test in mice
4.1. Experimental animals: Male Balb/c mice (20-25 g, 18 mice/compound) were purchased from Chengdu Dossy Experimental Animals Co., Ltd.
4.2. Experimental design: On the day of the experiment, the Balb/c mice were randomly grouped by body weight. The animals were fasted with water available for 12-14 h one day before the administration, and were fed 4 h after the administration. Table 4. Administration information
Before and after administration, 0.06 mL of blood was taken from the orbit under isoflurane anaesthesia, and placed in an EDTAK2 centrifuge tube. The tube was centrifuged at 5000 rpm at 4°C for 10 min, and plasma was collected. The blood collection time points for the intravenous group and intragastric group were both 0 min, 5 min, 15 min, 30 min, 1 h, 2 h, 4 h, 6 h, 8 h, and 24 h. Before analysis and detection, all samples were stored at -80°C, and the samples were quantitatively analysed by LC-MS/MS. Table 5. Pharmacokinetic parameters of test compounds in mouse plasma

Row | SMILES | IC50 (IL-23R) [nM] | IC50 (IL-23α/IL-12β and IL-23R) [nM] | AUC(0-t) ([1]; iv, i.v. (1 mg/kg)) [ng·h/mL] | clearance ([1]; iv, i.v. (1 mg/kg)) [mL/min/kg] | Vd ([1]; iv, i.v. (1 mg/kg), read-out: Vdss) [L/kg] | AUC(0-t) ([1]; po, i.g. (10 mg/kg)) [ng·h/mL] | bioavailability ([1]; po, i.g. (10 mg/kg)) [%]
1 | CC(=O)NCCCC[C@@H]1NC(=O)[C@H](Cc2c[nH]c3c(C)cccc23)NC(=O)[C@H]([C@@H](C)O)NC(=O)[C@H](CC(N)=O)NC(=O)[C@@H](NC(C)=O)C(C)(C)SSC(C)(C)[C@@H](C(=O)N[C@@H](Cc2ccc(OCCN)cc2)C(=O)N[C@@H](Cc2ccc3ccccc3c2)C(=O)NC2(C(=O)N[C@@H](CCC(=O)O)C(=O)N[C@@H](CC(N)=O)C(=O)N[C@@H](Cc3cccnc3)C(=O)N(C)CC(N)=O)CCS(=O)(=O)CC2)NC1=O [Compound 9] | 2.56 | 0.056 | – | – | – | – | –
2 | CC(=O)NCCCC[C@@H]1NC(=O)[C@H](Cc2c[nH]c3c(C)cccc23)NC(=O)[C@H]([C@@H](C)O)NC(=O)[C@H](Cc2c[nH]cn2)NC(=O)[C@H]2NC(=O)CCCCCNC(=O)CC[C@@H](C(=O)N[C@@H](CC(N)=O)C(=O)N[C@@H](Cc3cccnc3)C(=O)N(C)CC(N)=O)NC(=O)C3(CCOCC3)NC(=O)[C@H](Cc3ccc4ccccc4c3)NC(=O)[C@H](Cc3ccc(OCCN)cc3)NC(=O)[C@@H](NC1=O)C(C)(C)SSC2(C)C [Compound 11] ([Ahx][Pen]HT[Trp(7-Me)]K(Ac)[Pen][AEF][2Nal][Thp]EN[3Pal][Sar]-NH2; disulfide 2-7; lactam N-11) | 7.47 | 0.124 | – | – | – | – | –
3 | CC(=O)N[C@@H]1C(=O)N[C@@H](Cc2c[nH]cn2)C(=O)N[C@@H]([C@@H](C)O)C(=O)N[C@@H](Cc2c[nH]c3c(C4CC4)cccc23)C(=O)N[C@@H](CCCNC(N)=O)C(=O)N[C@H](C(=O)N[C@@H](Cc2ccc(OCCN)cc2)C(=O)N[C@@H](Cc2ccc3ccccc3c2)C(=O)NC2(C(=O)N[C@@H](CCC(=O)O)C(=O)N[C@@H](CC(N)=O)C(=O)N[C@@H](Cc3cccnc3)C(=O)N(C)CC(N)=O)CCOCC2)C(C)(C)SSC1(C)C [Compound 12] (Ac-[Pen]HT[Trp(7-cPr)][Cit][Pen][AEF][2Nal][Thp]EN[3Pal][Sar]-NH2; disulfide 1-6) | 3.58 | 0.0417 | – | – | – | – | –
4 | CC(=O)NC1C(=O)N[C@@H](Cc2c[nH]cn2)C(=O)N[C@@H]([C@@H](C)O)C(=O)N[C@@H](Cc2c[nH]c3c(C4CC4)cccc23)C(=O)N[C@@H](CCC(N)=O)C(=O)N[C@H](C(=O)N[C@@H](Cc2ccc(OCCN)c3c2CCC3)C(=O)N[C@@H](Cc2ccc3ccccc3c2)C(=O)NC2(C(=O)N[C@@H](CCC(=O)O)C(=O)N[C@@H](CC(N)=O)C(=O)N[C@@H](Cc3cccnc3)C(=O)N(C)CC(N)=O)CCS(=O)(=O)CC2)C(C)(C)SSC12CC2 (stereo partly shown) [Compound 24] (Ac-[X1]HT[Trp(7-cPr)]Q[Pen][Phe(4-OC2H4NH2,2,3-(CH2)3)][2Nal][Thp(SO2)]EN[3Pal][Sar]-NH2; disulfide 1-6) | 9.38 | 0.063 | 6770 ± 183 | 2.42 ± 0.064 | 0.225 ± 0.017 | 227 ± 139 | 0.335 ± 0.2
5 | CC(=O)NCCCC[C@@H]1NC(=O)[C@H](Cc2c[nH]c3c(C)cccc23)NC(=O)[C@H]([C@@H](C)O)NC(=O)[C@H](Cc2c[nH]cn2)NC(=O)[C@H]2NC(=O)COCCOCCNC(=O)CC[C@@H](C(=O)N[C@@H](CC(N)=O)C(=O)N[C@@H](Cc3cccnc3)C(=O)N(C)CC(N)=O)NC(=O)C3(CCOCC3)NC(=O)[C@H](Cc3ccc4ccccc4c3)NC(=O)[C@H](Cc3ccc(OCCN)cc3)NC(=O)[C@@H](NC1=O)C(C)(C)SSC2(C)C [Compound 27] ([AEEA][Pen]HT[Trp(7-Me)]K(Ac)[Pen][AEF][2Nal][Thp]EN[3Pal][Sar]-NH2; disulfide 2-7; lactam N-11) | 1.37 | 0.114 | – | – | – | – | –
6 | CC(=O)NCCCC[C@@H]1NC(=O)[C@H](Cc2c[nH]c3c(C)cccc23)NC(=O)[C@H]([C@@H](C)O)NC(=O)[C@H](Cc2c[nH]cn2)NC(=O)[C@H]2NC(=O)CCOCCNC(=O)CC[C@@H](C(=O)N[C@@H](CC(N)=O)C(=O)N[C@@H](Cc3cccnc3)C(=O)N(C)CC(N)=O)NC(=O)C3(CCOCC3)NC(=O)[C@H](Cc3ccc4ccccc4c3)NC(=O)[C@H](Cc3ccc(OCCN)cc3)NC(=O)[C@@H](NC1=O)C(C)(C)SSC2(C)C [Compound 28] ([PEG1][Pen]HT[Trp(7-Me)]K(Ac)[Pen][AEF][2Nal][Thp]EN[3Pal][Sar]-NH2; disulfide 2-7; lactam N-11) | 6.27 | 0.122 | – | – | – | – | –
7 | CC(=O)NCCCC[C@@H]1NC(=O)[C@H](Cc2c[nH]c3c(C)cccc23)NC(=O)[C@H]([C@@H](C)O)NC(=O)[C@H](Cc2c[nH]cn2)NC(=O)[C@H]2NC(=O)COCCOCCOCCOCCNC(=O)CC[C@@H](C(=O)N[C@@H](CC(N)=O)C(=O)N[C@@H](Cc3cccnc3)C(=O)N(C)CC(N)=O)NC(=O)C3(CCOCC3)NC(=O)[C@H](Cc3ccc4ccccc4c3)NC(=O)[C@H](Cc3ccc(OCCN)cc3)NC(=O)[C@@H](NC1=O)C(C)(C)SSC2(C)C [Compound 29] ([NH(CH2CH2O)4CH2CO][Pen]HT[Trp(7-Me)]K(Ac)[Pen][AEF][2Nal][Thp]EN[3Pal][Sar]-NH2; disulfide 2-7; lactam N-11) | 1.72 | 0.089 | – | – | – | – | –
